Laboratory results taken from patent publication EP0309541B1, “SULFONYLCARBOXAMIDES” (AMERICAN HOME PRODUCTS CORPORATION, priority 1987, dated 1988).

How the values were obtained:
[1] = test system: rat carrageenan paw edema; experiment: Rat carrageenan paw edema assay; assay type: in vivo; details: for ED50: oral, standard drugs, rat paw edema, read-out: Oral ED50 (95% C.L.); for % Inhibition at 50 mg/kg (peroral): 1 hour prior to carrageenan, edema at 3 hours
Experimental: The compounds of the invention are further tested in the rat carrageenan paw edema assay to determine their ability to inhibit the acute inflammatory response.
(§1) This assay is carried out as follows:
140-180 gm male Sprague-Dawley rats, in groups of 6 animals are injected subcutaneously in the right paw with 0.1 ml of 1% carrageenan at zero time. Mercury plethysmographic readings (ml) of the paw are made at zero time and 3 hours later. Test compounds are suspended or dissolved in 0.5% methylcellulose and given perorally 1 hour prior to carrageenan administration.
The increase in paw volume (edema in ml.) produced by the carrageenan is measured. […] Unpaired Student's t-test is used to determine statistical significance.

[2] = test system: LTD₄ induced bronchoconstriction; experiment: Inhibition of leukotriene-induced bronchospasm in guinea pigs in vivo; details: 10 minutes before induction of bronchospasm, inhibition of % max AUC
Experimental: The assay of this Example measures the in vivo ability of the compounds of the invention to inhibit the bronchospasm induced in guinea pigs by the exogenously administered leukotrienes C₄ and/or D₄.
as §1
Male Hartley strain guinea pigs (350-600g) are anesthetized with pentobarbital sodium (50 mg/kg, i.p.). The jugular vein is cannulated for injection of drugs and the carotid artery for monitoring blood pressure. The trachea is cannulated for artificial ventilation by a miniature Starling pump and for indirect measurement of respiratory volume changes. The animals are then pretreated with succinylcholine (2 mg/kg i.v.) and indomethacin (10 mg/kg i.v. in trizma 8.3 buffer, 9 minutes prior to leukotriene challenge). Submaximal bronchoconstrictor responses are established in control animals by varying the dose-levels of leukotriene. Intravenous dose-levels for LTC₄ range from 0.4 to 0.6 µg/kg and for LTD₄ the range is from 0.3 to 0.5 µg/kg.
Test drugs (dissolved in a solvent such as propylene glycol, polyethylene glycol 400 or saline) are administered either intraduodenally, by aerosol or intragastrically at 2 or 10 minutes before induction of bronchospasm by administration of either LTC₄ or LTD₄ at the predetermined dose-level. Aerosol of soluble drugs or leukotrienes are produced in-line for 10 seconds only by actuation of an ultrasonic nebulizer (Monaghan). Aerosolized drug dosage is expressed in terms of solution concentration and by a fixed aerosol exposure time (approximately 10 seconds). Control animal receive solvent (2 ml/kg i.d. or appropriate aerosol) in place of drug.
Respiratory volume changes are determined by a calibrated piston whose travel is recorded, via a linear transducer, on a Beckman Dynograph recorder. Maximal bronchoconstrictor volume is determined by clamping off the trachea at the end of the experiment. Overflow volumes at 1, 3 and 5 minutes are obtained from the recorded charts.
Student's t-test for unpaired data is used to determine statistical significance (p < 0.05).

[3] = test system: synthesis of 5-HETE by rat glycogen elicited polymorphonuclear leukocytes; experiment: Inhibition of 5-HETE synthesis by rat glycogen elicited polymorphonuclear leukocytes; assay type: cell-based; details: Leukocyte, rat peritoneal PMN, A23187 10 µM, [14C] arachidonic acid, read-out: IC₅₀
Experimental: The assay of this Example measures the ability of the compounds of the invention to inhibit the synthesis of 5-HETE by rat glycogen elicited polymorphonuclear leukocytes.
The assay is carried out as follows:
(§2) Peritoneal PMN are obtained from female Wistar rats (150-250 g) that received an i.p. injection of 6% glycogen (10 ml). After 24 hours, rats are killed by Co₂ asphyxiation and peritoneal cells are harvested by peritoneal lavage using Ca⁺⁺ and Mg⁺⁺ free Hanks' balanced salt solution (HBSS). The peritoneal exudate is centrifuged at 400 g for 10 minutes. After centrifugation, the lavaged fluid is removed and the cell pellet is resuspended in HBSS containing Ca⁺⁺ and Mg⁺⁺ and 10 mM L-cysteine at a concentration of 2 x 10⁷ cells/ml. To 1 ml portions of cell suspension, test drugs or vehicle are added and incubated at 37°C for 10 minutes. Following this preincubation, the calcium ionophore (10 µM), A23187, is added together with 0.5 µCi [₁₄C] arachidonic acid and further incubated for 10 minutes. The reaction is stopped by the addition of ice cold water (3 ml) and acidifying to pH 3.5. Lipoxygenase products are then extracted twice into diethyl ether. […] After chromatography, the areas associated with 5-HETE standard are identified by autoradiography, cut out and quantitated by liquid scintillation.

[4] = test system: synthesis of the arachidonic acid cyclooxygenase oxidation product PGE₂; experiment: Inhibition of PGE₂ synthesis (cyclooxygenase product) by rat polymorphonuclear leukocytes; assay type: cell-based; details: Leukocyte, rat peritoneal PMN, procedure of Example 4, read-out: IC₅₀
Experimental: as §2, with “scintillation. […]” for “scintillation.”
In this assay, the procedure of Example 4 is carried out as described. […] After chromatography, the areas associated with the PGE₂ standard are identified by autoradiography, cut out and quantitated by liquid scintillation techniques.
The results are calculated as in Example 4.

[5] = 25 mg/kg intraduodenally administered
[6] = 25 mg/kg intragastrically administered

| Compound | ED50 [1] | % Inhibition at 50 mg/kg (peroral) [1] | % Inhibition [2, 5] | % Inhibition [2, 6] | IC50 [3] | IC50 [4] |
| --- | --- | --- | --- | --- | --- | --- |
| COc1ccc2c(c1)c(CC(=O)O)c(C)n2C(=O)c1ccc(Cl)cc1 [Indomethacin] | 3.7 mg/kg |  |  |  |  |  |
| CC(=O)Oc1ccccc1C(=O)O [Aspirin] | 145 mg/kg |  |  |  |  |  |
| Cc1ccc(S(=O)(=O)NC(=O)CCc2cccc(OCc3ccc4ccccc4n3)c2)cc1 [Example 1, N-[(4-Methylphenyl)sulfonyl]-3-(2-quinolylmethoxy)benzenepropanamide] |  | 40% | 97% | 66% |  |  |
| CCCCC1C(=O)N(c2ccccc2)N(c2ccccc2)C1=O [Phenylbutazone] | 26.2 mg/kg |  |  |  |  |  |
| Cc1ccc(S(=O)(=O)NC(=O)c2cccc(OCc3ccc4ccccc4n3)c2)cc1 [Example 3, N-[(4-Methylphenyl)sulfonyl]-3-(2-quinolinylmethoxy)benzamide] |  | 50% | 97% | 91% | 6 µM | 13 µM |
